Among the data in patent US10577373B2, “TYK2 inhibitors and uses thereof” (Nimbus Lakshmi, Inc., priority 2017, dated 2020) are IC50 values, retold here.

Read-outs that look alike come from different tables or passages of the source.

For the experiment, the system named is GM-CSF induced STAT5 phosphorylation mediated by the JAK2/JAK2 homdimeric complex. Description: GM-CSF Induced pSTAT5 in Human PBMC. The settings on record: GM-CSF 5 ng/mL for 20 minutes, pSTAT5.
[1] abbreviates: Homo sapiens, PBMC, 20 min, read-out: PBMC_GMCSF_pSTAT5 IC50, human PBMC.

Description: Human PBMC are isolated from buffy coat and are stored frozen for assays as needed.

As usually defined, the IC50 is the concentration needed to halve the response being measured. In the case of `CNc1cc(-c2cn(C3CC3)c3ncccc23)nc2c(C(=O)N[C@H]3CC[C@@H]3OC)cnn12` (stereo in doubt) [I-1067, 5-(1-cyclopropyl-1H-pyrrolo[2,3-b]pyridin-3-yl)-N-(2-methoxycyclobutyl)-7-(methylamino)pyrazolo[1,5-a]pyrimidine-3-carboxamide], the 50% inhibitory concentration (IC50) under setting [1] is over 12.5 µM. Still for that read-out and setting: the same measure for `[2H]C([2H])([2H])Oc1ncccc1Nc1cc(NC)n2ncc(C(=O)NC3CC4(COC4)C3)c2n1` [I-417, 5-((2-(methoxy-d3)pyridin-3-yl)amino)-7-(methylamino)-N-(2-oxaspiro[3.3]heptan-6-yl)pyrazolo[1,5-a]pyrimidine-3-carboxamide]: over 50 µM; for `CNc1cc(Nc2cccn([C@H]3CCCC[C@H]3O)c2=O)nc2c(C(=O)NC3CC3)cnn12` [I-878]: over 50 µM.

For the compound `CNc1cc(Nc2cc(Cl)cn(-c3cnn(C)c3F)c2=O)nc2c(C(=O)NC3CC3)cnn12` [I-955], the IC50 under setting [1] was over 12.5 µM. Still for that read-out and setting: the value for `CNc1cc(Nc2cccn([C@@H]3CCC[C@@H](OC)C3)c2=O)nc2c(C(=O)NC3CC3)cnn12` [I-957] was over 50 µM; that for `CNc1cc(Nc2cccn([C@H]3CCC[C@H](OC)C3)c2=O)nc2c(C(=O)NCC(C)(C)CO)cnn12` [I-958] was over 50 µM. As for `CNc1cc(Nc2cccn([C@H]3CC[C@](C)(OC)CC3)c2=O)nc2c(C(=O)N[C@@H]3CC[C@H]3O)cnn12` [I-962], the IC50 (read-out: PBMC_GMCSF_pSTAT5 IC50, human PBMC) was over 50 µM. With `CNc1cc(Nc2cccn([C@H]3CCC[C@H]3O)c2=O)nc2c(C(=O)NC3CC3)cnn12` [I-963], the IC50 under setting [1] is over 50 µM. As for `CNc1cc(Nc2cccn([C@H]3CCC[C@H]3O)c2=O)nc2c(C(=O)N[C@@H]3C[C@@H]3F)cnn12` [I-965], the concentration for half-maximal inhibition (IC50) under setting [1] was over 50 µM.

As to `CNc1cc(Nc2cccc(N3CCCC3=O)n2)nc2c(C(=O)N[C@H]3CC[C@H]3O)cnn12` [I-969], the half-inhibitory concentration (IC50) under setting [1] is over 50 µM. As for `CNc1cc(Nc2cccn(-c3ccccn3)c2=O)nc2c(C(=O)N[C@H]3CC[C@@H]3O)cnn12` [I-971], the IC50 under setting [1] was over 50 µM.

For the compound `CNc1cc(Nc2cccn([C@H]3CCC[C@@H](OC)C3)c2=O)nc2c(C(=O)N[C@@H]3CC[C@H]3O)cnn12` [I-993], the 50% inhibitory concentration (IC50) under setting [1] was over 50 µM. The same measure, in the same setting: the value for `CNc1cc(Nc2cccn([C@H]3CCC[C@@H](OC)C3)c2=O)nc2c(C(=O)N[C@H]3CC[C@@H]3OC)cnn12` [I-996] was over 50 µM; that for `CNc1cc(Nc2cccn([C@@H]3CC[C@H]3O)c2=O)nc2c(C(=O)N[C@@H]3C[C@@H]3F)cnn12` [I-999] was over 50 µM. In the case of `CNc1cc(Nc2cccn(-c3cccc(F)c3)c2=O)nc2c(C(=O)N[C@H]3CC[C@H]3O)cnn12` [I-1004], under setting [1], the IC50 is over 12.5 µM.

On to `CNc1cc(Nc2cccn([C@H]3CCC[C@H](OC)C3)c2=O)nc2c(C(=O)NCC3(CO)CC3)cnn12` [I-1010], for which, under setting [1], the concentration for half-maximal inhibition (IC50) is over 50 µM. On the same count and under the same terms, the same measure for `CNc1cc(-c2cn(C(C)C)c3ncc(F)cc23)nc2c(C(=O)N[C@H]3CC[C@H]3O)cnn12` [I-1013, 5-(5-fluoro-1-isopropyl-1-pyrrolo[2,3-b]pyridin-3-yl)-N-(2-hydroxycyclobutyl)-7-(methylamino)pyrazolo[1,5-a]pyrimidine-3-carboxamide]: over 12.5 µM. Regarding `CNc1cc(Nc2cccn(-c3cnco3)c2=O)nc2c(C(=O)N[C@H]3CC[C@H]3O)cnn12` [I-1017], the IC50 under setting [1] was over 12.5 µM.

For `CNc1cc(Nc2cccn([C@@H]3CC[C@H]3OC)c2=O)nc2c(C(=O)N[C@@H]3C[C@@H]3F)cnn12` [I-1022], under setting [1], the IC50 is over 12.5 µM. On the same count and under the same terms, the value for `CNc1cc(Nc2cccn([C@H]3CCC[C@H](OC)C3)c2=O)nc2c(C(=O)NC3CC3)cnn12` [I-1025] was over 50 µM; that for `CNc1cc(Nc2cccn([C@@H]3CCC[C@@H](O)C3)c2=O)nc2c(C(=O)N[C@@H]3C[C@@H]3F)cnn12` [I-1029] was over 2.5 µM. As for `CNc1cc(Nc2cccn(-c3ccccc3F)c2=O)nc2c(C(=O)N[C@H]3CC[C@H]3O)cnn12` [I-1035], the half-inhibitory concentration (IC50) under setting [1] is over 2.5 µM.

For `CNc1cc(Nc2cccn(-c3ccccc3F)c2=O)nc2c(C(=O)N[C@H]3CC[C@@H]3O)cnn12` [I-1038], the 50% inhibitory concentration (IC50) under setting [1] is over 50 µM.
